Data from patent publication US20260262643A1, “HERBICIDAL BENZOXAZINES” (FMC CORPORATION, priority 2022, published 2026).

Experiments:
ryegrass, Italian [1] = test: Test C preemergence; assay type: in vivo, Lolium multiflorum; details: 0 to 100 scale (0 no effect, 100 complete control); for Plant response rating, Ryegrass, Italian: Preemergence, visual rating after 10 days
Text: (§1) Seeds of plant species selected from barnyardgrass (Echinochloa crusgalli), blackgrass (Alopecurus myosuroides), corn (Zea mays), foxtail, giant (giant foxtail, Setaria faberi), green foxtail (Setaria viridis), goosegrass (Eleusine indica), kochia (Bassia scoparia), oat, wild (wild oat, Avena fatua), pigweed, palmer (palmer amaranth, palmer pigweed, Amaranthus palmeri), Pigweed, Redroot (redroot pigweed, Amaranthus retroflexus), ragweed (common ragweed, Ambrosia artemisiifolia), ryegrass, Italian ([…] ryegrass, Lolium multiflorum), soybean (Glycine max), and wheat (Triticum aestivum) were planted into a blend of loam soil and sand and treated preemergence with a directed soil spray using test chemicals formulated in a non-phytotoxic solvent mixture which included a surfactant. At the same time, plants selected from these crops and weed species and also galium (catchweed bedstraw, Galium aparine) and horseweed (Erigeron canadensis) were planted in pots containing the same blend of loam soil and sand and treated with postemergence applications of test chemicals formulated in the same manner. Plants ranged in height from 2 to 10 cm and were in the one- to two-leaf stage for the postemergence treatment. Treated plants and untreated controls were maintained in a greenhouse for 10 days, after which time all treated plants were compared to untreated controls and visually evaluated for injury. Plant response ratings, summarized in Table C, are based on a 0 to 100 scale where 0 is no effect and 100 is complete control. A dash (-) response means no test result.

ragweed [2] = test: Test C preemergence; assay type: in vivo, Ambrosia artemisiifolia; details: 0 to 100 scale (0 no effect, 100 complete control); for Plant response rating, Ragweed: Preemergence, visual rating after 10 days
Text: as §1

green foxtail [3] = test: Test C postemergence; assay type: in vivo, Setaria viridis; details: Postemergence, 1000 g ai/ha, 10 days, visual 0 to 100 scale (0 no effect, 100 complete control)
Text: as §1

pigweed, palmer [4] = test: Test C preemergence; assay type: in vivo, Amaranthus palmeri; details: 0 to 100 scale (0 no effect, 100 complete control); for Plant response rating, Pigweed, Palmer: Preemergence, visual rating after 10 days
Text: as §1

green foxtail [5] = test: Test C preemergence; assay type: in vivo, Setaria viridis; details: 0 to 100 scale (0 no effect, 100 complete control); for Plant response rating, Foxtail, Green: Preemergence, visual rating after 10 days
Text: as §1

barnyardgrass [6] = test: Test C postemergence; assay type: in vivo, Echinochloa crusgalli
Text: as §1

ragweed [7] = test: Test C postemergence; assay type: in vivo, Ambrosia artemisiifolia; details: 10 days
Text: as §1

horseweed = test: Test C postemergence; assay type: in vivo, Erigeron canadensis; details: 10 days
Text: as §1

pigweed, palmer [8] = test: Test C postemergence; assay type: in vivo, Amaranthus palmeri; details: 10 days
Text: as §1

blackgrass [9] = test: Test C postemergence; assay type: in vivo, Alopecurus myosuroides; details: 10 days
Text: as §1

blackgrass [10] = test: Test C preemergence; assay type: in vivo, Alopecurus myosuroides; details: 0 to 100 scale (0 no effect, 100 complete control); for Plant response rating, Blackgrass: Preemergence, visual rating after 10 days
Text: as §1

barnyardgrass [11] = test: Test C preemergence; assay type: in vivo, Echinochloa crusgalli; details: 0 to 100 scale (0 no effect, 100 complete control); for Plant response rating, Barnyardgrass: Preemergence, visual rating after 10 days
Text: as §1

kochia [12] = test: Test C preemergence; assay type: in vivo, Bassia scoparia; details: 0 to 100 scale (0 no effect, 100 complete control); for Plant response rating, Kochia: Preemergence, visual rating after 10 days
Text: as §1

ryegrass, Italian [13] = test: Test C postemergence; assay type: in vivo, Lolium multiflorum; details: 10 days
Text: as §1

kochia [14] = test: Test C postemergence; assay type: in vivo, Bassia scoparia; details: 10 days
Text: as §1

galium = test: Test C postemergence; assay type: in vivo, Galium aparine; details: 10 days
Text: as §1

corn [15] = test: Test C postemergence; assay type: in vivo, Zea mays; details: 10 days
Text: as §1

oat, wild [16] = test: Test C preemergence; assay type: in vivo, Avena fatua; details: 0 to 100 scale (0 no effect, 100 complete control)
Text: as §1

soybean [17] = test: Test C postemergence; assay type: in vivo, Glycine max; details: 10 days
Text: as §1

wheat [18] = test: Test C preemergence; assay type: in vivo, Triticum aestivum; details: 0 to 100 scale (0 no effect, 100 complete control)
Text: as §1

oat, wild [19] = test: Test C postemergence; assay type: in vivo, Avena fatua; details: 10 days
Text: as §1

corn [20] = test: Test C preemergence; assay type: in vivo, Zea mays; details: 0 to 100 scale (0 no effect, 100 complete control)
Text: as §1

wheat [21] = test: Test C postemergence; assay type: in vivo, Triticum aestivum; details: 10 days
Text: as §1

soybean [22] = test: Test C preemergence; assay type: in vivo, Glycine max; details: 0 to 100 scale (0 no effect, 100 complete control)
Text: as §1

[23] = Postemergence, 1000 g ai/ha, visual 0 to 100 scale (0 no effect, 100 complete control)
[24] = Test C, preemergence, 125 g ai/ha
[25] = 125 g ai/ha, postemergence, 0 to 100 scale, 0 no effect, 100 complete control
[26] = Postemergence, 500 g ai/ha, visual 0 to 100 scale (0 no effect, 100 complete control)
[27] = Preemergence, 500 g ai/ha, visual rating after 10 days

In the case of `C[C@H]1CN(C(=O)c2cccc(-n3cccc3)c2)c2cccc(Cl)c2O1` [Compound 222], the “Plant response rating, Ryegrass, Italian” value (ryegrass, Italian [1]; 1000 g ai/ha) is reported as 70, the “Plant response rating, Ragweed” value (ragweed [2]; 1000 g ai/ha) is reported as 0 and the “Plant response rating, Foxtail, Green” value (green foxtail [3]) is reported as 40. The “Plant response rating, Pigweed, Palmer” value (pigweed, palmer [4]; 1000 g ai/ha) was 50, the “Plant response rating, Foxtail, Green” value (green foxtail [5]; 1000 g ai/ha) was 100 and the “Plant response rating, Barnyardgrass” value (barnyardgrass [6]; Postemergence, 1000 g ai/ha, 0 to 100 scale, 0 no effect, 100 complete control) was 20. The “Plant response rating, Ragweed” value (ragweed [7]; [23]) was 0, the “Plant response rating, Horseweed” value (horseweed; [23]) was 0 and the “Plant response rating, Pigweed, Palmer” value (pigweed, palmer [8]; [23]) was 60. For the same compound, the “Plant response rating, Blackgrass” value (blackgrass [9]; [23]) was 50, the “Plant response rating, Blackgrass” value (blackgrass [10]; 1000 g ai/ha) was 70 and the “Plant response rating, Barnyardgrass” value (barnyardgrass [11]; 1000 g ai/ha) was 50. For the same compound, the “Plant response rating, Kochia” value (kochia [12]; 1000 g ai/ha) was 20, the “Plant response rating, Ryegrass, Italian” value (ryegrass, Italian [13]; [23]) was 50 and the “Plant response rating, Kochia” value (kochia [14]; [23]) was 60.
`Cc1cccc2c1O[C@@H](C)CN2C(=O)c1cccc(-n2cnc(N(C)C)n2)c1` [Compound 226] was tested, and the “Plant response rating, Ryegrass, Italian” value (ryegrass, Italian [1]; 500 g ai/ha) was 70, the “Ryegrass, Italian plant response rating” value (ryegrass, Italian [1]; [24]) was 70 and the “Plant response rating, Galium” value (galium; [25]) was 80. For the same compound, the “Plant response rating, Galium” value (galium; [26]) was 100, the “Plant response rating, Ragweed” value (ragweed [2]; 500 g ai/ha) was 20 and the “Ragweed plant response rating” value (ragweed [2]; [24]) was 20. The “Plant response rating, Pigweed, Palmer” value (pigweed, palmer [4]; 500 g ai/ha) was 90, the “Pigweed, Palmer plant response rating” value (pigweed, palmer [4]; [24]) was 50 and the “Plant response rating, Corn” value (corn [15]; [25]) was 20. The “Plant response rating, Corn” value (corn [15]; [26]) was 60, the “Plant response rating, Foxtail, Green” value (green foxtail [5]; 500 g ai/ha) was 100 and the “Foxtail, Green plant response rating” value (green foxtail [5]; [24]) was 100. The “Plant response rating, Barnyardgrass” value (barnyardgrass [6]; 125 g ai/ha, postemergence, 10 days, 0 to 100 scale, 0 no effect, 100 complete control) was 50, the “Plant response rating, Barnyardgrass” value (barnyardgrass [6]; Postemergence, 500 g ai/ha, 10 days, visual 0 to 100 scale (0 no effect, 100 complete control)) was 80 and the “Plant response rating, Oat, Wild” value (oat, wild [16]; [27]) was 60. The “Oat, Wild plant response rating” value (oat, wild [16]; [24]) was 40, the “Plant response rating, Ragweed” value (ragweed [7]; [25]) was 30 and the “Plant response rating, Ragweed” value (ragweed [7]; [26]) was 60. For the same compound, the “Plant response rating, Soybean” value (soybean [17]; [25]) was 100, the “Plant response rating, Soybean” value (soybean [17]; [26]) was 100 and the “Plant response rating, Horseweed” value (horseweed; [25]) was 10. The “Plant response rating, Horseweed” value (horseweed; [26]) was 30, the “Plant response rating, Pigweed, Palmer” value (pigweed, palmer [8]; [25]) was 40 and the “Plant response rating, Pigweed, Palmer” value (pigweed, palmer [8]; [26]) was 80. For the same compound, the “Plant response rating, Blackgrass” value (blackgrass [9]; [25]) was 60, the “Plant response rating, Blackgrass” value (blackgrass [9]; [26]) was 90 and the “Plant response rating, Wheat” value (wheat [18]; [27]) was 10. The “Wheat plant response rating” value (wheat [18]; [24]) was 0, the “Plant response rating, Blackgrass” value (blackgrass [10]; 500 g ai/ha) was 60 and the “Blackgrass plant response rating” value (blackgrass [10]; [24]) was 30. For the same compound, the “Plant response rating, Oat, Wild” value (oat, wild [19]; [25]) was 10, the “Plant response rating, Oat, Wild” value (oat, wild [19]; [26]) was 60 and the “Plant response rating, Barnyardgrass” value (barnyardgrass [11]; 500 g ai/ha) was 90. For the same compound, the “Barnyardgrass plant response rating” value (barnyardgrass [11]; [24]) was 50, the “Plant response rating, Kochia” value (kochia [12]; 500 g ai/ha) was 90 and the “Kochia plant response rating” value (kochia [12]; [24]) was 50. For the same compound, the “Plant response rating, Corn” value (corn [20]; [27]) was 0, the “Corn plant response rating” value (corn [20]; [24]) was 0 and the “Plant response rating, Ryegrass, Italian” value (ryegrass, Italian [13]; [25]) was 50. For the same compound, the “Plant response rating, Ryegrass, Italian” value (ryegrass, Italian [13]; [26]) was 90, the “Plant response rating, Wheat” value (wheat [21]; [25]) was 10 and the “Plant response rating, Wheat” value (wheat [21]; [26]) was 30. The “Plant response rating, Kochia” value (kochia [14]; [25]) was 70, the “Plant response rating, Kochia” value (kochia [14]; [26]) was 80 and the “Plant response rating, Soybean” value (soybean [22]; [27]) was 30. For the same compound, the “Soybean plant response rating” value (soybean [22]; [24]) was 20.
